Consider `COc1cc(Nc2c(C#N)cnc3cc(-c4ccc(CN5CCC(O)CC5)s4)ccc23)c(Cl)cc1Cl`, for which the melting point (as a rule, the temperature, or range, at which the solid turns liquid) lay in the range of 120 to 123 °C.
As to `C=CCc1c(O)c(Cl)cc(F)c1N1C(=O)c2ccccc2C1=O`, the melting point fell in the range of 134 to 136 °C.
In turn, `C#CCc1c(C)nc2c(NCc3c(C)cccc3NC(=O)CO)cccn12` returned a melting point of 195 to 196 °C.
With `CCOC(=O)C=C(C)c1ccc(-c2ccccc2)cc1`, the melting point was in the range of 76 to 78 °C.
As for `CS(=O)(=O)N1CCC2(CC1)OCCO2`, the melting point is 107 to 109 °C.
`CCCc1nn(C)c2c(OCCOc3ccc(CC(OCC)C(=O)O)cc3)nc(C)nc12` (stereo not given) displayed a melting point of 142 to 144 °C.
On to `CCCCC(C(=O)NO)S(=O)(=O)c1ccc(OC)cc1` (stereo not given), for which the melting point turned out to be 130 °C.
Turning to `CC1(C)CC(=O)C2=C(C1)NC1=C(C(=O)CC(C)(C)C1)C2c1ccc([N+](=O)[O-])c(OCc2ccccc2)c1`, the melting point is 239 to 240 °C.
The value for `Cc1cc(OCc2ccc(-c3ccc(C(F)(F)F)cc3)nc2C)ccc1OC(C)(C)C(=O)O` was 164 to 165 °C; that for `CC(C)(C)OC(=O)NC[C@H]1CN(c2ccc3c(c2)CC(C(C)(C)C)N3C=O)C(=O)O1` (stereo not given in full) was 153 to 161 °C.
`O=C1CS[C@@H]2[C@H](NC(=O)Cc3ccccc3)C(=O)N2C1` yielded a melting point of 183 °C.
`CCc1noc(-c2cn(-c3ccc([N+](=O)[O-])cn3)cn2)n1` came in with a melting point of 228 to 229 °C.
As for `CC=CCn1c(C)c(C)c2cnnc(OCc3c(Cl)cccc3Cl)c21`, the melting point was in the range of 133 to 140 °C.
The value for `O=[N+]([O-])c1cc(Cl)c(Oc2cc(Cl)c(Cl)cc2Cl)cc1Oc1ccccc1` was 84 °C.
In the case of `O=C(O)c1cnc(CO)s1`, the melting point was 193 °C.
The value for `COc1cc(Nc2c(C#N)cnc3sc(-c4ccc(C=O)cc4)cc23)c(Cl)cc1Cl` was > 240 °C; that for `O=C1C=CC(=O)c2ncccc21` was 110 °C; that for `C[C@@H](Cc1ccc(O)cc1)NS(=O)(=O)c1ccccc1` was 92 to 94 °C.
`CN1C(=O)c2cnc(-c3ccccc3)nc2N(C(=O)CN2CCOCC2)c2ccccc21` yielded a melting point of 180 to 181 °C.
In the case of `C=Cc1ccc(-c2ccc(OC(C)=O)cc2)cc1`, the melting point was in the range of 119 to 122 °C.
The compound `O=S(=O)(Cl)c1cccc(-c2cccc(-c3nc(-c4ccc(C(F)(F)F)cc4)cc(C(F)(F)F)n3)c2)c1` had a melting point of 176 °C.
For `Cc1ccc(C(=O)Nc2ccc3[nH]cc(C4CCN(C)CC4)c3n2)s1`, the melting point was 123 to 127 °C.
With `O=C(O)c1ccc(Cl)cc1C(=O)NCCCCc1cccnc1`, the melting point fell in the range of 152 to 154 °C.
With `CC(O)c1nnc2n1-c1sc(Cl)cc1C(c1ccccc1Cl)=NC2` (stereo not given), the melting point was in the range of 118 to 120 °C.
Turning to `CCCC(=O)C(Cc1ccc(-c2ccccc2-c2nnn[nH]2)cc1)C(=O)OCC` (stereo not given), the melting point stood at 65 °C.
Compound `O=S(=O)(NCCCN1c2ccccc2CCc2ccc(Cl)cc21)c1ccc(OC(F)(F)F)cc1` displayed a melting point of 119 to 121 °C.
The value for `CC(C)C(S)C(=O)NC1(C(=O)NC(Cc2ccc(-c3ccccc3)cc2)C(=O)O)CCOCC1` (stereo not given) was 161 to 163 °C.
The compound `CC1(C)OC(=O)Nc2ccc(-c3cc(C#N)cs3)cc21` yielded a melting point of 255 to 260 °C.
In the case of `Cc1ccc(-c2nnc(N3CCC(OC(=O)Oc4ccccc4)CC3)nc2-c2ccc(C)cc2)cc1` it was 142 to 143 °C; in that of `O=S(=O)(c1ccccc1)n1ncc2c(OCCCl)cccc21`, 102 to 104 °C; in that of `CC1CCCN1CCCN1C(=C(C#N)C#N)N(CCN2CCCCC2)c2ccccc21` (stereo not given), 85 to 86 °C.
`Oc1c(C(=S)NCc2ccc(Cl)cc2)cnc2ccc(I)cc12` returned a melting point of 275 to 276 °C.
The compound `COC(=O)C(=O)Nc1ccc(Cl)cc1` registered a melting point of 162 to 164 °C.
`OC(C=C(Cl)Cl)(Cn1cncn1)c1ccc(Cl)cc1` (stereo not given) gave a melting point of 95 to 99 °C.
The compound `CN1CC(CN)Oc2c(-c3ccc(Cl)cc3Cl)cccc21` (stereo not given) had a melting point of 90 °C.
Compound `COC(=O)NC1CCc2sc(Cl)c(C(=O)CCC(=O)O)c2C1` (stereo not given) registered a melting point of 178 to 179 °C.
`CSC1NC(=O)N(c2ccc(Cl)c(Cl)c2)C(=O)N1N=C(C)C` (stereo not given) displayed a melting point of 181 to 182 °C.
As to `NC(=O)C1=CCCc2cc(Sc3ccccc3)cc(F)c21`, the melting point is 224 to 226 °C.
Regarding `CC(C)[C@@H](NC(=O)OCc1ccccc1)C(=O)C=[N+]=[N-]`, the melting point was in the range of 68 to 69 °C.
In the case of `C=CCCc1ccc(NC(=O)OCc2ccccc2)c(O)n1`, the melting point lay in the range of 179 to 180 °C.
Consider `O=CNc1ccc(Br)c(Cl)c1`, for which the melting point was 110 to 113 °C.
`CC(C(=O)O)c1ccc(CC(Cl)(Cl)Cl)c(F)c1` (stereo not given): the melting point was 92 to 94 °C.
Compound `COc1ccccc1N1CCN(CCCn2c(=O)[nH]cc(C)c2=O)CC1` registered a melting point of 168 to 170 °C.
`CCCCCCCCCCCCOC(=O)c1cccc(NC(=O)NS(=O)(=O)c2ccc(C)cc2)c1` displayed a melting point of 110 to 112 °C.
On to `N#Cc1c(N2CCCCC2)[nH]c2cccnc12`, for which the melting point was in the range of 241 to 242 °C.
With `CONC(=NCCSCc1[nH]cnc1C)NC#N`, the melting point fell in the range of 155 to 156 °C.
In turn, `Cc1cc(Cl)nc(Nc2ccccc2[N+](=O)[O-])n1` returned a melting point of 175 °C.
Regarding `Cc1cccc(-c2nc(-c3ccc(S(C)(=O)=O)cc3)sc2-c2ccnc(Sc3ccccc3)c2)c1`, the melting point was 116 to 118 °C.
`C=CCSCC(O)(Cn1cncn1)c1ccc(Cl)cc1Cl` (stereo not given) had a melting point of 92 to 94 °C.
The compound `CC(=O)Oc1c(C(C)(C)C)cc(N(C)c2ccn(-c3ccccc3)n2)cc1C(C)(C)C` came in with a melting point of 102 to 103 °C.
In the case of `O=C(O)CCCNC(=O)c1cc(Cl)ccc1O` it was 136 to 140 °C.
In the case of `O=C(Nc1c(Cl)cnn1-c1c(F)c(F)c(C(F)(F)F)c(F)c1F)C(Cl)Cl` it was 115 to 116 °C.
Turning to `Nc1nc2ccccc2c2c1ncn2CCCCCCNC(=O)c1ccccc1`, the melting point was 146 to 155 °C.
In the case of `CC(C)Sc1ccc(O)cc1O` it was 67 °C.
Compound `CCCCCCCCCCc1ccc2cc(SC)c(OC)cc2c1` returned a melting point of 49.5 to 50.4 °C.
`COC(=O)c1cc(C=O)ccc1OCc1nc(-c2ccco2)oc1C` displayed a melting point of 121 to 122 °C.
Regarding `O=C(CCCCC1CCSS1)N1CCN(c2ccc([N+](=O)[O-])cc2)CC1` (stereo not given), the melting point was 97.6 to 98.5 °C.
The compound `CCCc1nc(-c2ccc(OCCCn3ccnc3)cc2)no1` gave a melting point of 57 to 58 °C.
For the compound `CC(C)(C)OC(=O)NCC1Cc2ccc(OCc3ccccc3)cc2C1` (stereo not given), the melting point was 95 to 98 °C.
On to `O=C(O)CCCn1c(=O)n2n(c1=O)C(C(=O)O)C=CC2` (stereo not given), for which the melting point was 130 °C.
`COc1cc2ccc(-c3ccccc3N)cc2cc1OC`: the melting point lay in the range of 215 to 217 °C.
In turn, `COc1ccc(NC(C)=O)cc1C(=O)O` yielded a melting point of 208 to 210 °C.
`Cc1cc(-n2ccnc2)c2cccc(OCc3c(Cl)ccc(S(=O)(=O)N4CCC[C@H]4C(=O)NCCc4ccncc4)c3Cl)c2n1` displayed a melting point of 120 °C.
`O=C(Nc1ccc(C(F)(F)F)cc1)N[C@@H](Cc1ccccc1)C(=O)OCc1ccccc1` came in with a melting point of 155 to 157 °C.
`CCCCCCCCCCC(O)CNC` (stereo not given) had a melting point of 56 to 57 °C.
